Experimental data taken from patent US20240246977A1, “DEGRADATION OF BRUTON'S TYROSINE KINASE (BTK) BY CONJUGATION OF BTK INHIBITORS WITH E3 LIGASE LIGAND AND METHOD OF USE” (BeiGene Switzerland GmbH, priority 2021, published 2024).

How the values were obtained:
[1] = target: BTK (Homo sapiens, UniProt Q06187); experiment: BTK cell degradation in TMD-8 cells, HTRF assay; type: cell-based; design: endogenous in cells; host or cells: TMD-8 cells; conditions: 6 h treatment, IC50 (DC50) of BTK degradation
Chain of BTK (Q06187 whole entry): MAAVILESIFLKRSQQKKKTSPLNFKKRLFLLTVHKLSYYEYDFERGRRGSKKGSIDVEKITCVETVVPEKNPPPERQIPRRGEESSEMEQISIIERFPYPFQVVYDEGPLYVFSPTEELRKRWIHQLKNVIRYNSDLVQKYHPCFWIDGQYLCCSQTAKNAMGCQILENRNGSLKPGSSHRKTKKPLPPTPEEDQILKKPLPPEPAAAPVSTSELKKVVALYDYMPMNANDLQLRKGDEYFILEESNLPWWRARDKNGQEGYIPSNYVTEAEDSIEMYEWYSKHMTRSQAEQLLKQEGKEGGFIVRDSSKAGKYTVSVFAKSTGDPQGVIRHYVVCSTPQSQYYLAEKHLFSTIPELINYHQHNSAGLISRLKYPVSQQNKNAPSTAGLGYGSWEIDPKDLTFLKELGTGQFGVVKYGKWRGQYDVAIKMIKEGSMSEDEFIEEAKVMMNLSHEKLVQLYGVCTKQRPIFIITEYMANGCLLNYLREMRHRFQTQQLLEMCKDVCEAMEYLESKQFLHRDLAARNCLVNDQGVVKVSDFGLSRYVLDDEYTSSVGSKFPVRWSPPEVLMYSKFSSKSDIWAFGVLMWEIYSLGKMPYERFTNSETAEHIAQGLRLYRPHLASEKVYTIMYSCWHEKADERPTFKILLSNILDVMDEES
How it was run: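 TMD-8 cells treated 6 h with 8-dose series (6-fold dilutions, 0.2% DMSO final), then lysed and BTK quantified by HTRF (337/665/620 nm) after overnight antibody incubation at room temperature. Degradation normalized to DMSO high and low controls; DC50 and Dmax from four-parameter fit.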

[2] = system: HEK-293 cells; experiment: HEK-293 cytotoxicity detection (CellTiter-Glo); type: cell-based; conditions: Homo sapiens, 72 h, 72 h incubation, CellTiter-Glo luminescence, read-out: HEK293
How it was run: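 HEK-293 cells exposed 72 h to 8 compounds doses (4-fold dilutions, top stock 5 mM at 500×) in 0.2% DMSO. Viability by CellTiter-Glo luminescence; inhibition normalised to DMSO high control and low control, IC50 from four-parameter curve fit.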

SMILES: COc1ccc(F)c(F)c1C(=O)NCc1ccc(-c2nn3c(c2C(N)=O)Nc2ccc(N4CCN(CC5CCN(c6ccc(N7CCC(=O)NC7=O)cc6)CC5)CC4)cc2CC3)cc1 [Example C25, 2-(4-((2,3-difluoro-6-methoxybenzamido)methyl)phenyl)-7-(4-((1-(4-(2,4-dioxotetrahydropyrimidin-1(2H)-yl)phenyl)piperidin-4-yl)methyl)piperazin-1-yl)-9,10-dihydro-4H-benzo[d]pyrazolo[1,5-a] [1,3]diazepine-3-carboxamide]
- DC50 [1]: 0.611 nM
- IC50 [2]: > 10000 nM

SMILES: NC(=O)c1c(-c2ccc(Oc3ccccc3)cc2)nn2c1Nc1ccc(C(=O)N3CCC(CN4CCN(c5cc6c(cc5F)C(=O)N(C5CCC(=O)NC5=O)C6=O)CC4)CC3)cc1CC2 (stereo not shown) [Example A14, 7-(4-((4-(2-(2,6-dioxopiperidin-3-yl)-6-fluoro-1,3-dioxoisoindolin-5-yl)piperazin-1-yl)methyl)piperidine-1-carbonyl)-2-(4-phenoxyphenyl)-9,10-dihydro-4H-benzo[d]pyrazolo[1,5-a][1,3]diazepine-3-carboxamide]
- DC50 [1]: 3.22 nM
- IC50 [2]: 509 nM

SMILES: COc1ccc2ccccc2c1C(=O)NCc1ccc(-c2nn3c(c2C(N)=O)Nc2ccc(N4CCN(CC5CCN(c6ccc(N7CCC(=O)NC7=O)cc6)CC5)CC4)cc2CC3)cc1 [Example C4, 7-(4-((1-(4-(2,4-dioxotetrahydropyrimidin-1(2H)-yl)phenyl)piperidin-4-yl)methyl)piperazin-1-yl)-2-(4-((2-methoxy-1-naphthamido)methyl)phenyl)-9,10-dihydro-4H-benzo[d]pyrazolo[1,5-a][1,3]diazepine-3-carboxamide]
- DC50 [1]: 0.282 nM
- IC50 [2]: > 10000 nM

SMILES: Cc1cccc(NC(=O)c2ncc(-c3nn4c(c3C(N)=O)Nc3ccc(N5CCN(C6CC(c7ccc([C@H]8CCC(=O)NC8=O)cc7)C6)CC5)cc3CC4)cc2C)n1 (stereo partly drawn) [Example B34, (R)-7-(4-(3-(4-(2,6-dioxopiperidin-3-yl)phenyl)cyclobutyl)piperazin-1-yl)-2-(5-methyl-6-((6-methylpyridin-2-yl)carbamoyl)pyridin-3-yl)-9,10-dihydro-4H-benzo[d]pyrazolo[1,5-a][1,3]diazepine-3-carboxamide]
- DC50 [1]: 57.8 nM
- IC50 [2]: 168 nM

SMILES: NC(=O)c1c(-c2ccc(C3(Nc4cc(C(F)(F)F)ccn4)CC3)cc2)nn2c1Nc1ccc(N3CCN(CC4CCN(c5ccc(N6CCC(=O)NC6=O)cc5)CC4)CC3)cc1CC2 [Example C16, 7-(4-((1-(4-(2,4-dioxotetrahydropyrimidin-1(2H)-yl)phenyl)piperidin-4-yl)methyl)piperazin-1-yl)-2-(4-(1-((4-(trifluoromethyl)pyridin-2-yl)amino)cyclopropyl)phenyl)-9,10-dihydro-4H-benzo[d]pyrazolo[1,5-a][1,3]diazepine-3-carboxamide]
- DC50 [1]: 60.1 nM
- IC50 [2]: > 10000 nM

SMILES: COc1ccccc1C(=O)NCc1ccc(-c2nn3c(c2C(N)=O)Nc2ccc(N4CCN(CC5CCN(c6ccc(N7CCC(=O)NC7=O)cc6)CC5)CC4)cc2CC3)c(OC)c1 [Example C44, 7-(4-((1-(4-(2,4-dioxotetrahydropyrimidin-1(2H)-yl)phenyl)piperidin-4-yl)methyl)piperazin-1-yl)-2-(2-methoxy-4-((2-methoxybenzamido)methyl)phenyl)-9,10-dihydro-4H-benzo[d]pyrazolo[1,5-a][1,3]diazepine-3-carboxamide]
- DC50 [1]: 3.8 nM
- IC50 [2]: 642 nM

SMILES: COc1ccccc1C(=O)NCc1ccc(-c2nn3c(c2C(N)=O)Nc2ccc(N4CCN(CC5CCN(c6ccc(N7CCC(=O)NC7=O)cc6)CC5)CC4)cc2CC3)c(F)c1C [Example C46, 7-(4-((1-(4-(2,4-dioxotetrahydropyrimidin-1(2H)-yl)phenyl)piperidin-4-yl)methyl)piperazin-1-yl)-2-(2-fluoro-4-((2-methoxybenzamido)methyl)-3-methylphenyl)-9,10-dihydro-4H-benzo[d]pyrazolo[1,5-a][1,3]diazepine-3-carboxamide]
- DC50 [1]: 4.38 nM
- IC50 [2]: > 10000 nM

SMILES: NC(=O)c1c(-c2ccc(Oc3ccccc3)cc2)nn2c1Nc1ccc(NC(=O)COCCOCCOCCOCCNc3cccc4c3C(=O)N(C3CCC(=O)NC3=O)C4=O)cc1CC2 (stereo not shown) [Example A2, 7-(14-((2-(2,6-dioxopiperidin-3-yl)-1,3-dioxoisoindolin-4-yl)amino)-3,6,9,12-tetraoxatetradecanamido)-2-(4-phenoxyphenyl)-9,10-dihydro-4H-benzo[d]pyrazolo[1,5-a][1,3]diazepine-3-carboxamide]
- DC50 [1]: 1.85 nM
- IC50 [2]: 557 nM

SMILES: Cc1cccc(NC(=O)c2ccc(-c3nn4c(c3C(N)=O)Nc3ccc(N5CCN(CC6CCN(c7ccc(N8CCC(=O)NC8=O)cc7)CC6)CC5)cc3CC4)cc2Cl)n1 [Example B25, 2-(3-chloro-4-((6-methylpyridin-2-yl)carbamoyl)phenyl)-7-(4-((1-(4-(2,4-dioxotetrahydropyrimidin-1(2H)-yl)phenyl)piperidin-4-yl)methyl)piperazin-1-yl)-9,10-dihydro-4H-benzo[d]pyrazolo[1,5-a][1,3]diazepine-3-carboxamide]
- DC50 [1]: 0.415 nM
- IC50 [2]: > 10000 nM

SMILES: Cc1nc(NC(=O)c2ccc(-c3nn4c(c3C(N)=O)Nc3ccc(N5CCN(CC6CN(c7ccc(N8CCC(=O)NC8=O)cc7)C6)CC5)cc3CC4)c(F)c2C)ccc1Cl [Example B53, 2-(4-((5-chloro-6-methylpyridin-2-yl)carbamoyl)-2-fluoro-3-methylphenyl)-7-(4-((1-(4-(2,4-dioxotetrahydropyrimidin-1(2H)-yl)phenyl)azetidin-3-yl)methyl)piperazin-1-yl)-9,10-dihydro-4H-benzo[d]pyrazolo[1,5-a][1,3]diazepine-3-carboxamide]
- DC50 [1]: 18.6 nM
- IC50 [2]: > 10000 nM

SMILES: NC(=O)c1c(-c2ccc(Oc3ccccc3)cc2)nn2c1Nc1cc(C3CCN(CC4CCN(c5ccc(NC6CCC(=O)NC6=O)cc5)CC4)CC3)ccc1CC2 (stereo not shown) [Example A35, 6-(1-((1-(4-((2,6-dioxopiperidin-3-yl)amino)phenyl)piperidin-4-yl)methyl)piperidin-4-yl)-2-(4-phenoxyphenyl)-9,10-dihydro-4H-benzo[d]pyrazolo[1,5-a][1,3]diazepine-3-carboxamide]
- DC50 [1]: 69.1 nM
- IC50 [2]: 241 nM

SMILES: NC(=O)c1c(-c2ccc(C(=O)Nc3cc(C4CC4)ccn3)cc2)nn2c1Nc1ccc(N3CCN(CC4CCN(c5ccc(N6CCC(=O)NC6=O)cc5)CC4)CC3)cc1CC2 [Example B11, 2-(4-((4-cyclopropylpyridin-2-yl)carbamoyl)phenyl)-7-(4-((1-(4-(2,4-dioxotetrahydropyrimidin-1(2H)-yl)phenyl)piperidin-4-yl)methyl)piperazin-1-yl)-9,10-dihydro-4H-benzo[d]pyrazolo[1,5-a][1,3]diazepine-3-carboxamide]
- DC50 [1]: 0.387 nM
- IC50 [2]: > 10000 nM

SMILES: NC(=O)c1c(-c2ccc(C(=O)Nc3nccc(C(F)(F)F)c3F)cc2)nn2c1Nc1ccc(N3CCN(CC4CCN(c5ccc(N6CCC(=O)NC6=O)cc5)CC4)CC3)cc1CC2 [Example B13, 7-(4-((1-(4-(2,4-dioxotetrahydropyrimidin-1(2H)-yl)phenyl)piperidin-4-yl)methyl)piperazin-1-yl)-2-(4-((3-fluoro-4-(trifluoromethyl)pyridin-2-yl)carbamoyl)phenyl)-9,10-dihydro-4H-benzo[d]pyrazolo[1,5-a][1,3]diazepine-3-carboxamide]
- DC50 [1]: 0.408 nM
- IC50 [2]: 180 nM

SMILES: COc1ccnc(NC(=O)c2ccc(-c3nn4c(c3C(N)=O)Nc3ccc(N5CCN(CC6CCN(c7ccc(N8CCC(=O)NC8=O)cc7)CC6)CC5)cc3CC4)cc2)c1 [Example B9, 7-(4-((1-(4-(2,4-dioxotetrahydropyrimidin-1(2H)-yl)phenyl)piperidin-4-yl)methyl)piperazin-1-yl)-2-(4-((4-methoxypyridin-2-yl)carbamoyl)phenyl)-9,10-dihydro-4H-benzo[d]pyrazolo[1,5-a][1,3]diazepine-3-carboxamide]
- DC50 [1]: 6.14 nM
- IC50 [2]: > 10000 nM

SMILES: CCOc1ccnc(NC(=O)c2ccc(-c3nn4c(c3C(N)=O)Nc3ccc(N5CCN(CC6CCN(c7ccc(N8CCC(=O)NC8=O)cc7)CC6)CC5)cc3CC4)c(F)c2C)c1 [Example B51, 7-(4-((1-(4-(2,4-dioxotetrahydropyrimidin-1(2H)-yl)phenyl)piperidin-4-yl)methyl)piperazin-1-yl)-2-(4-((4-ethoxypyridin-2-yl)carbamoyl)-2-fluoro-3-methylphenyl)-9,10-dihydro-4H-benzo[d]pyrazolo[1,5-a][1,3]diazepine-3-carboxamide]
- DC50 [1]: 7.39 nM
- IC50 [2]: 290 nM

SMILES: Cc1cc(N2CCC(CN3CCN(c4ccc5c(c4)CCn4nc(-c6ccc(C(=O)Nc7cc(C(F)(F)F)ccn7)cc6)c(C(N)=O)c4N5)CC3)CC2)ccc1N1CCC(=O)NC1=O [Example B3, 7-(4-((1-(4-(2,4-dioxotetrahydropyrimidin-1(2H)-yl)-3-methylphenyl)piperidin-4-yl)methyl)piperazin-1-yl)-2-(4-((4-(trifluoromethyl)pyridin-2-yl)carbamoyl)phenyl)-9,10-dihydro-4H-benzo[d]pyrazolo[1,5-a][1,3]diazepine-3-carboxamide]
- DC50 [1]: 0.534 nM
- IC50 [2]: 88.8 nM

SMILES: CC(C)(C)c1noc(C(=O)NCc2ccc(-c3nn4c(c3C(N)=O)Nc3ccc(N5CCN(CC6CCN(c7ccc(N8CCC(=O)NC8=O)cc7)CC6)CC5)cc3CC4)cc2)n1 [Example C12, 3-(tert-butyl)-N-(4-(3-carbamoyl-7-(4-((1-(4-(2,4-dioxotetrahydropyrimidin-1(2H)-yl)phenyl)piperidin-4-yl)methyl)piperazin-1-yl)-9,10-dihydro-4H-benzo[d]pyrazolo[1,5-a][1,3]diazepin-2-yl)benzyl)-1,2,4-oxadiazole-5-carboxamide]
- DC50 [1]: 1.82 nM
- IC50 [2]: > 10000 nM
